In paper PMC4858447 (ACS chemical biology, 2015):
Like-named read-outs stand apart in the source and are kept apart here.

Columns and labels:
5FW-BPTF bromodomain = 5FW-BPTF bromodomain (Homo sapiens, UniProt Q12830); experiment: Protein-observed 19F NMR; assay type: binding; conditions: for BPTF 19F NMR: 100 μM compound, 50 μM Brd4 and BPTF, 1% DMSO; for selectivity between BPTF and Brd4 by PrOF NMR (in words): dual screen
[1] = molecular target: 5FW-Brd4 (first bromodomain of Brd4) (Homo sapiens, UniProt O60885); experiment: Protein-observed 19F NMR; assay type: binding; conditions: for Brd4 19F NMR: 100 μM compound, 50 μM Brd4 and BPTF, 1% DMSO; for binding to Brd4 (in words): PrOF NMR
Brd4 [2] = molecular target: T1, Brd4 (Homo sapiens, UniProt O60885); experiment: Fluorescence anisotropy competition against bound BODIPY-BI2536; assay type: binding
Brd4 [3] = molecular target: T1, Brd4; experiment: Differential scanning fluorimetry; assay type: binding; conditions: DSF, 100 μM inhibitor, 4 μM Brd4
HEK 293T cells = experiment: Cell viability assay; assay type: cell-based, human; conditions: 24 hours at 3 and 10 μM
Cell viability assay = assay type: cell-based, human; conditions: human, HEK 293T cells
hepatocytes = conditions: 10 μM compound; cited from earlier work
[4] = tested on: BPTF-regulatory region upstream of Mobkl3 promoter in Eph4 cells; experiment: pGL3_Mobkl3p luciferase reporter assay; assay type: cell-based, mouse; conditions: 5 μM for 12 hours, pGL3_Mobkl3p vector
[5] = read-out: EC50 in five cellular assays; ChEMBL search; targets unknown; cited from earlier work

Compound | BPTF 19F NMR (5FW-BPTF bromodomain) | selectivity between BPTF and Brd4 by PrOF NMR (in words) (5FW-BPTF bromodomain) | Brd4 19F NMR [1] | also measured
CCn1c(-c2nonc2N)nc2c(C#CCN)ncc(OCCCN)c21 [GSK561866B] | ++ (a resonance from the protein in question has been perturbed by 2 standard deviations in either chemical shift or linewidth) | highly selective for BPTF | - | 
COC(=O)c1cccc(NC(=O)NC2CCN(c3ccnc(Nc4ccc(OC)cc4)n3)C2)c1 (stereo not drawn) [GSK1379746A] | +++ | completely selective for BPTF over Brd4 | - | 
Oc1ccc(-c2nc(-c3ccncc3)c(-c3ccc(F)cc3)[nH]2)cc1 [SB-202190, reference compound] |  | selective for Brd4 over BPTF |  | 
O=C(Nc1ccc2c(c1)OCO2)NC1CCN(c2ccnc(Nc3ccc(F)cc3)n2)C1 (stereo not drawn) [GSK1379724A] |  |  |  | binding to BPTF (in words) (5FW-BPTF bromodomain; PrOF NMR): unable to bind; binding to Brd4 (in words) [1]: unable to bind
CCn1c(-c2nonc2N)nc2c(-c3ccccc3)ncc(OCCCN)c21 [GSK260205A] | +++ |  | +++ | 
CN(C)CCOc1ccc(-c2nc(-c3ccncc3)c(-c3ccc4c(c3)CC/C4=N\O)[nH]2)cc1 [SB-590885-AAE] | - |  | +++ | Ki (Brd4 [2]; read-out: Brd4 FP Ki, competition with BODIPY-BI2536, 156 nM Brd4): 0.4 ± 0.23 µM; Brd4 ΔTm (Brd4 [3]): 5.1 ± 0.4 °C
CCc1ccc(Oc2nccc(-c3c(-c4ccc(F)cc4)ncn3C3CCNCC3)n2)cc1 [SB-242719] | + (a resonance from the protein in question has been perturbed by 1 standard deviation in either chemical shift or linewidth) |  | +++ | Ki (Brd4 [2]): 13 ± 3 µM; fold weaker affinity (Brd4 [2]; relative to SB-284851-BT (1)): 40 fold
Cc1cnc(Nc2ccc(OCCN3CCCC3)cc2)nc1Nc1cccc(S(=O)(=O)NC(C)(C)C)c1 [TG-101348, reference compound] |  | selective for Brd4 over BPTF |  | 
COC(=O)c1cccc(NC(=O)NC2CCN(c3ccnc(Nc4ccc(F)cc4)n3)C2)c1 (stereo not drawn) [AU1] | +++ |  | - | cellular toxicity against HEK 293T cells (HEK 293T cells): no cellular toxicity; viability at 48 h, 10 µM (Cell viability assay): 76%; cellular toxicity in hepatocytes (hepatocytes): did not detect cellular toxicity; loss of luciferase activity [4]: ~ 4 fold; EC50 [5]: 0.5 µM; binding to Brd4 (in words) [1]: No binding is detected
COC(=O)c1cccc(NC(=O)NC2CCN(c3ccnc(Nc4cc(OC)c(OC)c(OC)c4)n3)C2)c1 (stereo not drawn) [GSK1379767A] | +++ |  | +++ | 
